The values below come from ChEMBL document CHEMBL1128753, “Synthesis and bioactivity of photolabile sirolimus (rapamycin) analogs” (Bioorg Med Chem Lett, 1995).

As usually defined, the IC50 is the concentration that gives 50% inhibition.

One test relates to T-cell. As to the kind of experiment: Tested for inhibition of T cell proliferation in the co-mitogen stimulated proliferation assay. It counts as functional, cell-based. As to conditions: Homo sapiens.
In a further test the test system is Mus musculus. Put plainly: Mean Survival time of the graft was evaluated in murine skin allograft transplantation assay upon intraperitoneal administration of 4 mg/kg dose. It counts as functional.

`CO[C@H]1C[C@@H]2CC[C@@H](C)[C@@](O)(O2)C(=O)C(=O)N2CCCC[C@H]2C(=O)O[C@H]([C@H](C)C[C@@H]2CC[C@@H](OC(=O)CCCCCCCNc3ccc(N=[N+]=[N-])cc3[N+](=O)[O-])[C@H](OC)C2)CC(=O)[C@H](C)/C=C(\C)[C@@H](O)[C@@H](OC)C(=O)[C@H](C)C[C@H](C)/C=C/C=C/C=C/1C` had an IC50 in the test on T-cell of 10.2 nM. For `CO[C@H]1C[C@@H]2CC[C@@H](C)[C@@](O)(O2)C(=O)C(=O)N2CCCC[C@H]2C(=O)O[C@H]([C@H](C)C[C@@H]2CC[C@@H](OC(=O)CCCCCNc3ccc(N=[N+]=[N-])cc3[N+](=O)[O-])[C@H](OC)C2)CC(=O)[C@H](C)/C=C(\C)[C@@H](O)[C@@H](OC)C(=O)[C@H](C)C[C@H](C)/C=C/C=C/C=C/1C`, in the test on T-cell, the IC50 is 2.5 nM. In the test on Mus musculus, `CO[C@H]1C[C@@H]2CC[C@@H](C)[C@@](O)(O2)C(=O)C(=O)N2CCCC[C@H]2C(=O)O[C@H]([C@H](C)C[C@@H]2CC[C@@H](OC(=O)Cc3ccc(N=[N+]=[N-])cc3)[C@H](OC)C2)CC(=O)[C@H](C)/C=C(\C)[C@@H](O)[C@@H](OC)C(=O)[C@H](C)C[C@H](C)/C=C/C=C/C=C/1C` returned an MST of 10.7 days. Besides, in the test with T-cell, it took 1 nM to reach half-maximal inhibition (IC50). In turn, `CO[C@H]1C[C@@H]2CC[C@@H](C)[C@@](O)(O2)C(=O)C(=O)N2CCCC[C@H]2C(=O)O[C@H]([C@H](C)C[C@@H]2CC[C@@H](O)[C@H](OC)C2)CC(=O)[C@H](C)/C=C(\C)[C@@H](OC(=O)CCCCCCCNc2ccc(N=[N+]=[N-])cc2[N+](=O)[O-])[C@@H](OC)C(=O)[C@H](C)C[C@H](C)/C=C/C=C/C=C/1C` had an IC50 in the test on T-cell of 10.5 nM. Molecule `CO[C@H]1C[C@@H]2CC[C@@H](C)[C@@](O)(O2)C(=O)C(=O)N2CCCC[C@H]2C(=O)O[C@H]([C@H](C)C[C@@H]2CC[C@@H](OC(=O)Cc3ccc(N=[N+]=[N-])c(I)c3)[C@H](OC)C2)CC(=O)[C@H](C)/C=C(\C)[C@@H](O)[C@@H](OC)C(=O)[C@H](C)C[C@H](C)/C=C/C=C/C=C/1C` came in with an MST in the test with Mus musculus of 12.7 days. Further, it took 3 nM to reach half-maximal inhibition in the test with T-cell (IC50).

`CO[C@H]1C[C@@H]2CC[C@@H](C)[C@@](O)(O2)C(=O)C(=O)N2CCCC[C@H]2C(=O)O[C@H]([C@H](C)C[C@@H]2CC[C@@H](O)[C@H](OC)C2)CC(=O)[C@H](C)/C=C(\C)[C@@H](O)[C@@H](OC)C(=O)[C@H](C)C[C@H](C)/C=C/C=C/C=C/1C` [SIROLIMUS] showed an MST in the test with Mus musculus of 12.01 days. The molecule also registered an IC50 with T-cell of 9.8 nM. Turning to `CO[C@H]1C[C@@H]2CC[C@@H](C)[C@@](O)(O2)C(=O)C(=O)N2CCCC[C@H]2C(=O)O[C@H]([C@H](C)C[C@@H]2CC[C@@H](O)[C@H](OC)C2)CC(=O)[C@H](C)/C=C(\C)[C@@H](OC(=O)Cc2ccc(N=[N+]=[N-])cc2)[C@@H](OC)C(=O)[C@H](C)C[C@H](C)/C=C/C=C/C=C/1C`, the IC50 in the test with T-cell amounted to 5.8 nM. Same read-out and setting: with `CO[C@H]1C[C@@H]2CC[C@@H](C)[C@@](O)(O2)C(=O)C(=O)N2CCCC[C@H]2C(=O)O[C@H]([C@H](C)C[C@@H]2CC[C@@H](O)[C@H](OC)C2)CC(=O)[C@H](C)/C=C(\C)[C@@H](OC(=O)CCCCCNc2ccc(N=[N+]=[N-])cc2[N+](=O)[O-])[C@@H](OC)C(=O)[C@H](C)C[C@H](C)/C=C/C=C/C=C/1C` the figure was 7.8 nM.
